# Experimental data reported in patent US8975235B2, “Lysophosphatidic acid receptor antagonists” (InterMune, Inc., priority 2011, dated 2015).
# Tests used:
# Format in all cases: cell-based
# Human LPA3 = molecular target: T1, Human LPA3 (Homo sapiens, UniProt Q9UBY5); assay: LPA3 calcium flux assay; details: human LPA3 expressing CHO cells; stimulated with 10 nM LPA; read-out: Ca Flux LPA3 IC50
# T1 construct: The full-length cDNA fragment for human LPA3 is obtained by PCR from the vector; expressed in transfected cells; host or cells: CHO
# T1 sequence (Q9UBY5 1-353): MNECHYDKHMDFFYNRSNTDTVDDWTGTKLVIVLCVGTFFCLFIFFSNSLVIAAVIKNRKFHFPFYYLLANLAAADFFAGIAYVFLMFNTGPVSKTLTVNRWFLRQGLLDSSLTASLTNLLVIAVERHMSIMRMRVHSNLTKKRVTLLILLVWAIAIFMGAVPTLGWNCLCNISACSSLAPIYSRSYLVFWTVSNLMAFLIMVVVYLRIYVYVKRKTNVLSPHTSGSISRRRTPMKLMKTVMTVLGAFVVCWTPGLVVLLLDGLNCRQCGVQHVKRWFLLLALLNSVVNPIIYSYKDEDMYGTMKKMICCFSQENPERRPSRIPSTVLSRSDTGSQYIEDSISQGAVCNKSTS
# Description: Establishment of a CHO Cell Line Stably Expressing Human LPA3
# A vector containing the human LPA3 receptor cDNA is obtained from the Missouri S&T cDNA Resource Center (www.cdna.org). The full-length cDNA fragment for human LPA3 is obtained by PCR from the vector. The nucleotide sequence of the cloned human LPA3 is determined by sequencing and is confirmed to be identical to the published human LPA3 sequence (NCBI accession number NM_012152). The cDNA is cloned into the pcDNA5 pcDNA5/FRT expression plasmid and is transfected in CHO cells using lipofectamine 2000 (Invitrogen Corp., USA). Clones stably expressing human LPA3 are selected using hygromycin and identified as cells that show Ca-influx in response to LPA.
# (§1) LPA1 and LPA3 Calcium Flux Assays
# (§2) Human LPA1 or LPA3 expressing CHO cells were seeded at 20,000-45,000 cells per well in a 96-well poly-D-lysine coated plate one or two days before the assay. Prior to the assay, the cells were washed once with PBS and then cultured in serum-free media overnight. On the day of the assay, a calcium indicator dye (Calcium 4, Molecular Devices) in assay buffer (HBSS with Ca^2+ and Mg^2+ and containing 20 mM Hepes and 0.3% fatty-acid free human serum albumin) was added to each well and incubation continued for 1 hour at 37° C. 10 μl of test compounds in 2.5% DMSO were added to the cells and incubation continued at room temperature for 30 minutes. Cells were then stimulated by the addition of 10 nM LPA and intracellular Ca^2+ measured using the Flexstation 3 (Molecular Devices). IC50s were determined using Graphpad prism analysis of drug titration curves.
# Human LPA1 [1] = molecular target: T2, Human LPA1 (Homo sapiens, UniProt Q92633); assay: Beta-Arrestin based assay for human LPA1R antagonists (PathHunter); set-up: host or cells: CHO; details: CHO cells stably expressing ProLink tagged human LPA1R; agonist LPA 0.5 micromolar
# T2 sequence (Q92633 whole entry, the tested form may be a part): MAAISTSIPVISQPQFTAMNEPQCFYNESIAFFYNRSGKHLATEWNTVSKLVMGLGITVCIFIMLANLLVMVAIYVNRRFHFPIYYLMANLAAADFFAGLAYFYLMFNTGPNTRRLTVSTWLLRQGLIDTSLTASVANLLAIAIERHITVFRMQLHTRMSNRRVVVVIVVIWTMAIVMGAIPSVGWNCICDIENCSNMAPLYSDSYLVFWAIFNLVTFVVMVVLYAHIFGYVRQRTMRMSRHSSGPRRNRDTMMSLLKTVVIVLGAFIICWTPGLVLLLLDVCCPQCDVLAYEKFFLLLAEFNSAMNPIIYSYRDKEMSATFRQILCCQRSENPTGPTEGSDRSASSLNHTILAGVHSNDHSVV
# Procedure, shortened: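 CHO cells stably expressing ProLink-tagged human LPA1R with β-arrestin–EA fusion, assayed by β-galactosidase complementation. Antagonists tested against 0.5 micromolar LPA ([…]), in quadruplicate. End-point luminescence fitted to a 4-parameter logistic to give IC50.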
# Human LPA1 [2] = molecular target: T2, Human LPA1; assay: LPA1 calcium flux assay; set-up: the full-length cDNA for human LPA1 is obtained by PCR of the reverse transcription reaction; expressed in transfected cells; host or cells: CHO; details: human LPA1 expressing CHO cells; stimulated with 10 nM LPA; read-out: Ca Flux LPA1 IC50
# Description: Establishment of a CHO Cell Line Stably Expressing Human LPA1
# A 1.1 kb cDNA encoding the human LPA1 receptor is cloned from human lung. Human lung RNA (Clontech Laboratories, Inc. USA) is reverse transcribed using the RETROscript kit (Ambion, Inc.) and the full-length cDNA for human LPA1 is obtained by PCR of the reverse transcription reaction. The nucleotide sequence of the cloned human LPA1 is determined by sequencing and is confirmed to be identical to the published human LPA1 sequence (An et al. Biochem. Biophys. Res. Commun. 231:619 (1997). The cDNA is cloned into the pcDNA5 pcDNA5/FRT expression plasmid and is transfected in CHO cells using lipofectamine 2000 (Invitrogen Corp., USA). Clones stably expressing human LPA1 are selected using hygromycin and identified as cells that show Ca-influx in response to LPA.
# as §1, §2
Structure (SMILES),IC50 (Human LPA3) [nM],EC50 (Human LPA1 [1]) [nM],IC50 (Human LPA1 [2]) [nM]
Cc1noc(-c2ccc(-c3ccc(C4(C(=O)O)CC4)cc3)cc2)c1NC(=O)O[C@H](C)c1ccccc1 [Compound 74],> 500,< 50,< 50
Cc1nsc(-c2ccc(-c3ccc(CC(=O)O)cc3)cc2)c1NC(=O)O[C@H](C)c1ccccc1Cl [Compound 20],> 500,50 to 500,< 50
C[C@@H](OC(=O)Nc1c(-c2ccc(-c3ccc(C4(C(=O)O)CC4)cc3)cc2)oc2ncccc12)c1ccccc1Cl [Compound 153],> 500,< 50,> 500
C[C@@H](OC(=O)Nc1c(-c2ccc(-c3ccc(C4(C(=O)O)CC4)cc3)cc2)oc2ncccc12)c1ccccc1 [Compound 152],50 to 500,< 50,50 to 500
C[C@@H](OC(=O)Nc1c(-c2ccc(-c3ccc(C4(C(=O)O)CC4)cc3)cc2)oc2cnccc12)c1ccccc1Cl [Compound 149],> 500,< 50,50 to 500
"Cc1noc(-c2ccc(-c3ccc(C(C(=O)O)c4ccccc4)cc3)cc2)c1NC(=O)O[C@H](C)c1ccccc1Cl (single isomer, unassigned) [Compound 14]",50 to 500,< 50,< 50
C[C@@H](OC(=O)Nc1c(-c2ccc(-c3ccc(C4(C(=O)O)CC4)cc3)cc2)cnn1C)c1ccccc1 [Compound 170],> 500,< 50,< 50
C[C@@H](OC(=O)Nc1c(-c2ccc(-c3ccc(C4(C(=O)O)CC4)cc3)cc2)cnn1C)c1ccccc1Cl [Compound 171],> 500,< 50,< 50
C[C@@H](OC(=O)Nc1ccnn1-c1ccc(-c2ccc(C3(C(=O)O)CC3)cc2)cc1)c1ccccc1Cl [Compound 67],,< 50,< 50
Cc1noc(-c2ccc(-c3ccc(CC(=O)O)c4ccccc34)cc2)c1NC(=O)O[C@H](C)c1ccccc1Cl [Compound 6],50 to 500,< 50,50 to 500
Cc1nsc(-c2ccc(-c3ccc(C4(C(=O)O)CC4)cc3)c(F)c2)c1NC(=O)O[C@H](C)c1ccccc1 [Compound 185],,< 50,< 50
Cc1nnn(-c2ccc(-c3ccc(C4(C(=O)O)CC4)cc3)cc2)c1NC(=O)O[C@H](C)c1ccccc1 [Compound 65],> 500,< 50,< 50
